# System: MV-4-11 cells
# Test: Gene expression microarray analysis (Affymetrix PrimeView) and GSEA
# Assay type: cell-based, human
# Design: RFU PODN (11730768_x_at) / Fold change /veh PODN (11730768_x_at) / RFU LINC00158 (11744669_a_at) / Fold change /veh LINC00158 (11744669_a_at) / RFU DUSP10 (11751237_a_at) / Fold change /veh DUSP10 (11751237_a_at) / RFU ID3 (11757404_x_at) / Fold change /veh ID3 (11757404_x_at) / RFU PLEKHG5 (11737974_s_at) / Fold change /veh PLEKHG5 (11737974_s_at) / RFU LRRC4B (11730491_at) / Fold change /veh LRRC4B (11730491_at) / RFU GIMAP4 (11747438_a_at) / Fold change /veh GIMAP4 (11747438_a_at) / RFU KRT8 (11758183_x_at) / Fold change /veh KRT8 (11758183_x_at) / RFU CNN1 (11734310_a_at) / Fold change /veh CNN1 (11734310_a_at) / RFU VPS37D (11726825_at) / Fold change /veh VPS37D (11726825_at) / RFU C10orf10 (11716522_x_at) / Fold change /veh C10orf10 (11716522_x_at) / RFU KIR2DL2 /// KIR2DL4 /// KIR2DL5A /// KIR2DL5B /// KIR2DS1 /// KIR2DS2 /// KIR2DS3 /// KIR2DS4 /// KIR3DL3 /// KIR3DL3 /// KIR3DS1 (11738374_at) / Fold change /veh KIR2DL2 /// KIR2DL4 /// KIR2DL5A /// KIR2DL5B /// KIR2DS1 /// KIR2DS2 /// KIR2DS3 /// KIR2DS4 /// KIR3DL3 /// KIR3DL3 /// KIR3DS1 (11738374_at) / RFU C1QL1 (11718748_at) / Fold change /veh C1QL1 (11718748_at) / RFU TMPRSS4 (11747572_a_at) / Fold change /veh TMPRSS4 (11747572_a_at) / RFU HAMP (11756126_x_at) / Fold change /veh HAMP (11756126_x_at) / RFU RNFT2 (11725882_a_at) / Fold change /veh RNFT2 (11725882_a_at) / RFU NR4A2 (11747474_a_at) / Fold change /veh NR4A2 (11747474_a_at) / RFU ABCC12 (11746883_a_at) / Fold change /veh ABCC12 (11746883_a_at) / RFU TMEM136 (11760407_x_at) / Fold change /veh TMEM136 (11760407_x_at) / RFU CLDN22 /// WWC2 (11732394_at) / Fold change /veh CLDN22 /// WWC2 (11732394_at) / RFU HLA-DPB1 (11760878_x_at) / Fold change /veh HLA-DPB1 (11760878_x_at) / RFU SPINT1 (11716480_a_at) / Fold change /veh SPINT1 (11716480_a_at) / RFU GAP43 (11754022_s_at) / Fold change /veh GAP43 (11754022_s_at) / RFU A4GNT (11735810_at) / Fold change /veh A4GNT (11735810_at) / RFU PRB3 (11715151_x_at) / Fold change /veh PRB3 (11715151_x_at) / RFU TUBB4B (11761932_at) / Fold change /veh TUBB4B (11761932_at) / RFU CAPN14 (11732068_a_at) / Fold change /veh CAPN14 (11732068_a_at) / RFU TMCC2 (11721928_a_at) / Fold change /veh TMCC2 (11721928_a_at) / RFU IRGQ (11745062_a_at) / Fold change /veh IRGQ (11745062_a_at) / RFU FAM174B (11720279_a_at) / Fold change /veh FAM174B (11720279_a_at) / RFU TMPRSS4 (11748680_a_at) / Fold change /veh TMPRSS4 (11748680_a_at) / RFU FAM212B (11763350_a_at) / Fold change /veh FAM212B (11763350_a_at) / RFU PLEKHG5 (11743358_a_at) / Fold change /veh PLEKHG5 (11743358_a_at) / RFU ZSCAN30 (11745921_a_at) / Fold change /veh ZSCAN30 (11745921_a_at) / RFU CMKLR1 (11741424_a_at) / Fold change /veh CMKLR1 (11741424_a_at) / RFU LOC101060620 /// MAPK8IP1 (11723275_at) / Fold change /veh LOC101060620 /// MAPK8IP1 (11723275_at) / RFU SPTSSB (11747773_x_at) / Fold change /veh SPTSSB (11747773_x_at) / RFU PRSS12 (11739890_at) / Fold change /veh PRSS12 (11739890_at) / RFU BIN1 (11741810_x_at) / Fold change /veh BIN1 (11741810_x_at) / RFU WNT11 (11732464_a_at) / Fold change /veh WNT11 (11732464_a_at) / RFU C10orf10 (11716521_a_at) / Fold change /veh C10orf10 (11716521_a_at) / RFU C5orf56 (11738089_at) / Fold change /veh C5orf56 (11738089_at) / RFU CYB561 (11721691_x_at) / Fold change /veh CYB561 (11721691_x_at) / RFU ANKRD19P (11752326_a_at) / Fold change /veh ANKRD19P (11752326_a_at) / RFU OR2T12 /// OR2T33 /// OR2T8 (11738714_s_at) / Fold change /veh OR2T12 /// OR2T33 /// OR2T8 (11738714_s_at) / RFU VCAN (11748164_a_at) / Fold change /veh VCAN (11748164_a_at) / RFU JSRP1 (11732532_at) / Fold change /veh JSRP1 (11732532_at) / RFU KRTAP10-11 (11738290_x_at) / Fold change /veh KRTAP10-11 (11738290_x_at) / RFU MYO3A (11730013_a_at) / Fold change /veh MYO3A (11730013_a_at) / RFU EBF3 (11725865_a_at) / Fold change /veh EBF3 (11725865_a_at) / RFU CAMK2N1 (11719241_x_at) / Fold change /veh CAMK2N1 (11719241_x_at) / RFU C5orf56 (11738088_a_at) / Fold change /veh C5orf56 (11738088_a_at) / RFU OLFML3 (11715873_a_at) / Fold change /veh OLFML3 (11715873_a_at) / RFU LOC100653217 /// NTM (11731650_a_at) / Fold change /veh LOC100653217 /// NTM (11731650_a_at) / RFU MAPK11 (11762145_a_at) / Fold change /veh MAPK11 (11762145_a_at) / RFU FIZ1 (11724087_x_at) / Fold change /veh FIZ1 (11724087_x_at) / RFU OASL (11726364_x_at) / Fold change /veh OASL (11726364_x_at) / RFU SOX15 (11748057_x_at) / Fold change /veh SOX15 (11748057_x_at) / RFU CD79A (11719716_a_at) / Fold change /veh CD79A (11719716_a_at) / RFU HIST1H1D (11736915_at) / Fold change /veh HIST1H1D (11736915_at) / RFU CASKIN2 (11723855_a_at) / Fold change /veh CASKIN2 (11723855_a_at) / RFU LOC730098 (11760151_x_at) / Fold change /veh LOC730098 (11760151_x_at) / RFU OR4N2 (11742367_at) / Fold change /veh OR4N2 (11742367_at) / RFU PRRT2 (11749266_a_at) / Fold change /veh PRRT2 (11749266_a_at) / RFU SNX32 (11753110_a_at) / Fold change /veh SNX32 (11753110_a_at) / RFU CDHR5 (11726645_a_at) / Fold change /veh CDHR5 (11726645_a_at) / RFU RCAN1 (11760418_a_at) / Fold change /veh RCAN1 (11760418_a_at) / RFU FAM167A (11723789_a_at) / Fold change /veh FAM167A (11723789_a_at) / RFU FAM26E (11764081_at) / Fold change /veh FAM26E (11764081_at) / RFU ISYNA1 (11749810_s_at) / Fold change /veh ISYNA1 (11749810_s_at) / RFU ACY1 (11761880_at) / Fold change /veh ACY1 (11761880_at) / RFU 11764098_at / Fold change /veh 11764098_at / RFU SAMD14 (11745864_x_at) / Fold change /veh SAMD14 (11745864_x_at) / RFU NPB (11741838_a_at) / Fold change /veh NPB (11741838_a_at) / RFU TMPRSS6 (11731388_a_at) / Fold change /veh TMPRSS6 (11731388_a_at) / RFU KRTAP10-2 (11738614_at) / Fold change /veh KRTAP10-2 (11738614_at) / RFU ARHGAP8 /// PRR5-ARHGAP8 (11727945_x_at) / Fold change /veh ARHGAP8 /// PRR5-ARHGAP8 (11727945_x_at) / RFU KRTAP5-7 /// NADSYN1 (11734609_at) / Fold change /veh KRTAP5-7 /// NADSYN1 (11734609_at) / RFU RASL12 (11751679_a_at) / Fold change /veh RASL12 (11751679_a_at) / RFU CDKN2B (11736163_a_at) / Fold change /veh CDKN2B (11736163_a_at) / RFU PRF1 (11729649_at) / Fold change /veh PRF1 (11729649_at) / RFU, ZNF638 /// ZNF638-IT1 / Fold change vs veh, ZNF638 /// ZNF638-IT1 / RFU, PANK3 / Fold change vs veh, PANK3 / RFU, SH3YL1 / Fold change vs veh, SH3YL1 / RFU, ZEB2 / Fold change vs veh, ZEB2 / RFU, NRIP1 / Fold change vs veh, NRIP1 / RFU, PTTG1IP / Fold change vs veh, PTTG1IP / RFU, CAPN2 / Fold change vs veh, CAPN2 / RFU, MED14 / Fold change vs veh, MED14 / RFU, SNORA58 / Fold change vs veh, SNORA58 / RFU, C1orf63 / Fold change vs veh, C1orf63 / RFU, LRRFIP1 / Fold change vs veh, LRRFIP1 / RFU, NDUFAF7 / Fold change vs veh, NDUFAF7 / RFU, SLC12A2 / Fold change vs veh, SLC12A2 / RFU, IBTK / Fold change vs veh, IBTK / RFU, ESF1 / Fold change vs veh, ESF1 / Fold change vs veh, TMEM50B / RFU, TAOK1 / Fold change vs veh, TAOK1 / RFU, ACBD3 / Fold change vs veh, ACBD3 / RFU, TMA16 / Fold change vs veh, TMA16 / RFU, RWDD3 / Fold change vs veh, RWDD3 / RFU, BCAT1 / Fold change vs veh, BCAT1 / RFU, EDEM3 / Fold change vs veh, EDEM3 / RFU, TMEM33 / Fold change vs veh, TMEM33 / RFU, WDR75 / Fold change vs veh, WDR75 / RFU, AHCTF1 / Fold change vs veh, AHCTF1 / RFU, TFRC / Fold change vs veh, TFRC / RFU, ZDHHC17 / Fold change vs veh, ZDHHC17 / RFU, NOM1 / Fold change vs veh, NOM1 / RFU, ARL8B / Fold change vs veh, ARL8B / RFU, ZBTB11 / Fold change vs veh, ZBTB11 / RFU, TAMM41 / Fold change vs veh, TAMM41 / RFU, KIAA1704 /// LOC100996395 / Fold change vs veh, KIAA1704 /// LOC100996395 / RFU, ING1 / Fold change vs veh, ING1 / RFU, TRMT61B / Fold change vs veh, TRMT61B / RFU, FUBP3 / Fold change vs veh, FUBP3 / RFU, TP53 / Fold change vs veh, TP53 / RFU, TNKS2 / Fold change vs veh, TNKS2 / RFU, ZFP14 / Fold change vs veh, ZFP14 / RFU, ACTR2 / Fold change vs veh, ACTR2 / RFU, PPP3R1 / Fold change vs veh, PPP3R1 / RFU, PIK3R1 / Fold change vs veh, PIK3R1 / RFU, HNRNPA1 / Fold change vs veh, HNRNPA1 / RFU, RNF170 / Fold change vs veh, RNF170 / RFU, ZNF28 / Fold change vs veh, ZNF28 / RFU, RNGTT / Fold change vs veh, RNGTT / RFU, OGT / Fold change vs veh, OGT / RFU, BRD1 / Fold change vs veh, BRD1 / RFU, MARS / Fold change vs veh, MARS / RFU, ZNF655 / Fold change vs veh, ZNF655 / RFU, FAHD1 / Fold change vs veh, FAHD1 / RFU, BDP1 / Fold change vs veh, BDP1 / RFU, LRRCC1 / Fold change vs veh, LRRCC1 / RFU, ARID1A / Fold change vs veh, ARID1A / RFU, ZNF146 / Fold change vs veh, ZNF146 / RFU, ZNF330 / Fold change vs veh, ZNF330 / RFU, GPN3 / Fold change vs veh, GPN3 / RFU, C9orf123 / Fold change vs veh, C9orf123 / RFU, N4BP2L2 / Fold change vs veh, N4BP2L2 / RFU, ARFIP1 / Fold change vs veh, ARFIP1 / RFU, FAM179B / Fold change vs veh, FAM179B / RFU, BCL10 / Fold change vs veh, BCL10 / RFU, UHRF1BP1L / Fold change vs veh, UHRF1BP1L / RFU, BET1 / Fold change vs veh, BET1 / RFU, CNOT2 / Fold change vs veh, CNOT2 / RFU, ZNF268 / Fold change vs veh, ZNF268 / Fold change vs veh, ZNF507 / RFU, DGCR2 / Fold change vs veh, DGCR2 / RFU, WDSUB1 / Fold change vs veh, WDSUB1 / Fold change vs veh, HSP90B1 /// MIR3652 / RFU, ADSS / Fold change vs veh, ADSS / RFU, GK / Fold change vs veh, GK / RFU, ZNF148 / Fold change vs veh, ZNF148 / RFU, TAF9 / Fold change vs veh, TAF9 / RFU, SLC1A5 / Fold change vs veh, SLC1A5 / RFU, SLMO2 / Fold change vs veh, SLMO2 / RFU, ABCC4 / Fold change vs veh, ABCC4 / RFU, LOC101060439 /// RAP1B / Fold change vs veh, LOC101060439 /// RAP1B / RFU, RFX7 / Fold change vs veh, RFX7 / RFU, GTPBP10 / Fold change vs veh, GTPBP10 / RFU, CNEP1R1 / Fold change vs veh, CNEP1R1 / RFU, BIVM-ERCC5 /// ERCC5 / Fold change vs veh, BIVM-ERCC5 /// ERCC5 / RFU, ILF3 / Fold change vs veh, ILF3 / RFU 11762660_at / Fold change /veh 11762660_at / RFU VCAN (11757783_s_at) / Fold change /veh VCAN (11757783_s_at) / RFU DDX43 (11728927_at) / Fold change /veh DDX43 (11728927_at) / RFU KRT8 (11758188_x_at) / Fold change /veh KRT8 (11758188_x_at) / RFU NKD1 (11759106_at) / Fold change /veh NKD1 (11759106_at) / RFU SRD5A1 (11742802_a_at) / Fold change /veh SRD5A1 (11742802_a_at) / RFU TPSAB1 /// TPSB2 (11721975_s_at) / Fold change /veh TPSAB1 /// TPSB2 (11721975_s_at) / RFU GSTM3 (11746129_a_at) / Fold change /veh GSTM3 (11746129_a_at) / RFU IL23R (11737362_x_at) / Fold change /veh IL23R (11737362_x_at) / RFU TMEM51 (11727254_a_at) / Fold change /veh TMEM51 (11727254_a_at) / RFU PIWIL2 (11732686_x_at) / Fold change /veh PIWIL2 (11732686_x_at) / RFU ORM1 (11744905_x_at) / Fold change /veh ORM1 (11744905_x_at) / RFU CCDC152 (11743942_at) / Fold change /veh CCDC152 (11743942_at) / RFU ECM1 (11717891_a_at) / Fold change /veh ECM1 (11717891_a_at) / RFU IL23R (11748794_a_at) / Fold change /veh IL23R (11748794_a_at) / RFU TNFAIP8L3 (11732012_x_at) / Fold change /veh TNFAIP8L3 (11732012_x_at) / RFU MBOAT4 (11741988_at) / Fold change /veh MBOAT4 (11741988_at) / RFU 11764193_at / Fold change /veh 11764193_at / RFU TMEM53 (11763286_at) / Fold change /veh TMEM53 (11763286_at) / RFU MAGEB2 (11727129_at) / Fold change /veh MAGEB2 (11727129_at) / RFU TMEM200A (11744735_a_at) / Fold change /veh TMEM200A (11744735_a_at) / RFU CCDC152 (11751479_a_at) / Fold change /veh CCDC152 (11751479_a_at) / RFU FAM211A (11726209_a_at) / Fold change /veh FAM211A (11726209_a_at) / RFU RGS16 (11746705_a_at) / Fold change /veh RGS16 (11746705_a_at) / RFU VCAN (11755009_s_at) / Fold change /veh VCAN (11755009_s_at) / RFU RHOB (11743442_s_at) / Fold change /veh RHOB (11743442_s_at) / RFU RGS16 (11720943_a_at) / Fold change /veh RGS16 (11720943_a_at) / RFU RGS16 (11720944_at) / Fold change /veh RGS16 (11720944_at) / RFU, VPS4B / Fold change vs veh, VPS4B / RFU, CREB1 / Fold change vs veh, CREB1 / RFU, DNAJC13 / Fold change vs veh, DNAJC13 / RFU, GNAQ / Fold change vs veh, GNAQ / RFU, CDK5R1 / Fold change vs veh, CDK5R1 / RFU, ZRANB3 / Fold change vs veh, ZRANB3 / RFU, CUL4A / Fold change vs veh, CUL4A / RFU, CCNY / Fold change vs veh, CCNY / RFU, UFL1 / Fold change vs veh, UFL1 / RFU, COG3 / Fold change vs veh, COG3 / RFU, DIAPH2 / Fold change vs veh, DIAPH2 / RFU, SKA2 / Fold change vs veh, SKA2 / RFU, AFF3 / Fold change vs veh, AFF3 / RFU, LMF1 / Fold change vs veh, LMF1 / RFU, IPO11 / Fold change vs veh, IPO11 / RFU, DFFB / Fold change vs veh, DFFB / RFU, FOXP1 / Fold change vs veh, FOXP1 / RFU, CARD8 / Fold change vs veh, CARD8 / RFU, STRN3 / Fold change vs veh, STRN3 / RFU, ADK / Fold change vs veh, ADK / RFU, RASSF2 / Fold change vs veh, RASSF2 / RFU, WIPF1 / Fold change vs veh, WIPF1 / RFU, LARP1B / Fold change vs veh, LARP1B / RFU, RASA1 / Fold change vs veh, RASA1 / RFU, RB1 / Fold change vs veh, RB1 / RFU, PPFIA1 / Fold change vs veh, PPFIA1 / RFU, MAT2A / Fold change vs veh, MAT2A / RFU, CCT5 / Fold change vs veh, CCT5 / RFU, WDR92 / Fold change vs veh, WDR92 / RFU, CUX1 / Fold change vs veh, CUX1 / RFU, TTC7A / Fold change vs veh, TTC7A / RFU, TMEM135 / Fold change vs veh, TMEM135 / RFU, DEPTOR / Fold change vs veh, DEPTOR / RFU, CPM / Fold change vs veh, CPM / RFU, DNAJB6 / Fold change vs veh, DNAJB6 / RFU, CACNA2D3 / Fold change vs veh, CACNA2D3 / RFU, DTX4 / Fold change vs veh, DTX4 / RFU, TFCP2 / Fold change vs veh, TFCP2 / RFU, GMCL1 /// GMCL1P1 / Fold change vs veh, GMCL1 /// GMCL1P1 / RFU, AEBP2 / Fold change vs veh, AEBP2 / RFU, SNHG1 /// SNORD22 /// SNORD25 /// SNORD26 /// SNORD27 /// SNORD28 /// SNORD29 /// SNORD31 / Fold change vs veh, SNHG1 /// SNORD22 /// SNORD25 /// SNORD26 /// SNORD27 /// SNORD28 /// SNORD29 /// SNORD31 / Fold change (Aza/veh), C12orf56 (ProbeSet 11735607_a_at) / Fold change (ACY-1035/veh), C12orf56 (ProbeSet 11735607_a_at) / Fold change (Aza/veh), FGFR1OP (ProbeSet 11751329_s_at) / Fold change (ACY-1035/veh), FGFR1OP (ProbeSet 11751329_s_at) / Fold change (Aza/veh), VPS36 (ProbeSet 11739960_a_at) / Fold change (ACY-1035/veh), VPS36 (ProbeSet 11739960_a_at) / RFU SYPL1 (11715823_x_at) / Fold change /veh SYPL1 (11715823_x_at) / RFU IGFBP7 (11715501_s_at) / Fold change /veh IGFBP7 (11715501_s_at) / RFU REEP3 (11722064_at) / Fold change /veh REEP3 (11722064_at) / RFU IGLL1 (11728026_x_at) / Fold change /veh IGLL1 (11728026_x_at): dose or concentration left out as unconfirmed
# Conditions: MV-4-11 cells, 48 hours
smiles,measurement,value
Nc1ncn([C@@H]2O[C@H](CO)[C@@H](O)[C@H]2O)c(=O)n1 [azacitidine],RFU ABCC12 (11746883_a_at),6.52 RFU
